Patent US20200048308A1, “INFLUENZA VIRUS NE[…]” (priority 2016, published 2020)
Where two headings read alike, the source gives them in different places. Where a SMILES comes first, the peptide text is derived from it.

Experiments:
[1] = molecular target: H1/Cal HA (biotinylated full length trimeric HA, A/California/07/2009) (Influenza A virus, UniProt C3W5X2); assay: AlphaLISA competition assay with HB80.4, H1/Cal HA; format: binding, influenza A virus H1N1 A/California/07/2009
Excerpt: (§1) Binding competition studies were designed to test compounds of the invention for competition with other well characterized HA binding proteins (such as e.g. CR9114, CR6261 and HB80.4) with known epitopes on HA. The epitopes where either located at the stem of the HA (viral membrane proximal part of HA) or, for control purposes, at the head of HA (viral membrane distal part of HA). If competition was observed, it was assumed that both molecules bind to a similar or at least overlapping epitope at the surface of HA. Competition with a HA head- and stem-binder was interpreted as unspecific binding.
(§2) Hereto an AlphaLISA competition assay (Perkin Elmer) was established which relied on biotinylated full length and trimeric HA proteins (Protein Sciences, 10 μL, 0.5 nM final concentration in 50 μL) bound by HA-specific binders. The interaction between HA and the binder was detected after 1 h incubation at room temperature (RT) with two beads, a streptavidin donor bead recognizing HA (10 μL of 10 μg/mL) and an anti Fc bead (10 μg/mL) recognizing the IgGs used. If after an additional hour of incubation at RT the excited donor bead (680 nm) and acceptor bead are in close proximity, an energy transfer (singlet oxygen) can be measured as a luminescence signal of the acceptor bead (Perkin Elmer EnVision plate reader). The signal intensity in this homogeneous assay format is directly proportional to the binding strength (affinity/avidity) between both binding partners.

[2] = molecular target: H1/Nca HA (biotinylated full length trimeric HA, A/New Caledonia/20/1999) (Influenza A virus, UniProt Q6WG00); assay: AlphaLISA competition assay with HB80.4, H1/NCa HA; format: binding, influenza A virus H1N1 A/New Caledonia/20/1999
Excerpt: as §1, §2

[3] = ALC_H1_NCa_HB80.4 calculated pIC50, AlphaLISA competition with HB80.4 on H1 NCa HA, 0.5 nM HA

SMILES	IC50 [1] [µM]	IC50 [2, 3] [µM]	IC50 [2] [µM]
CSCC[C@@H]1NC(=O)[C@H](CCC(=O)O)NC(=O)CNC(=O)[C@H](C)NC(=O)[C@H](C(C)C)NC(=O)CNC(=O)[C@H](CC(C)C)NC(=O)[C@@H]2CCCN2C(=O)[C@H](CC(=O)O)NC(=O)[C@H](CCCNC(=N)N)NC(=O)[C@H](Cc2ccc(O)cc2)NC(=O)[C@H](CC(C)C)NC(=O)[C@@H](NC(=O)CCC(=O)O)CSSC[C@@H](C(N)=O)NC(=O)CNC1=O [CP141071, Suc-Cys-Leu-Tyr-Arg-Asp-Pro-Leu-Gly-Val-Ala-Gly-Glu-Met-Gly-Cys-NH2] (HELM PEPTIDE1{[O=C(O)CCC(=O)[*:2]].C.L.Y.R.D.P.L.G.V.A.G.E.M.G.C.[am]}$PEPTIDE1,PEPTIDE1,2:R3-16:R3$$$V2.0)	0.501	2	
CSCC[C@@H]1NC(=O)[C@H](CCC(=O)O)NC(=O)CNC(=O)[C@H](C)NC(=O)[C@H](C(C)C)NC(=O)CNC(=O)[C@H](CC(C)C)NC(=O)[C@@H]2CCCN2C(=O)[C@H](CC(=O)O)NC(=O)[C@H](CCCNC(=N)N)NC(=O)[C@H](Cc2ccc(O)cc2)NC(=O)[C@@H](NC(=O)CCC(=O)O)CSSC[C@@H](C(N)=O)NC1=O [CP141072, Suc-Cys-Tyr-Arg-Asp-Pro-Leu-Gly-Val-Ala-Gly-Glu-Met-Cys-NH2]	15.8		12.6
CSCC[C@H](NC(=O)CNC(=O)CNC(=O)[C@H](C)NC(=O)[C@@H](NC(=O)CNC(=O)[C@H](CC(C)C)NC(=O)[C@@H]1CCCN1C(=O)[C@H](CC(=O)O)NC(=O)[C@H](CCCNC(=N)N)NC(=O)[C@H](Cc1ccc(O)cc1)NC(=O)[C@H](CC(C)C)NC(=O)[C@H](CO)NC(=O)[C@@H](NC(=O)CCC(=O)O)C(C)C)C(C)C)C(=O)NCC(=O)N[C@H](C(=O)N[C@@H](Cc1ccc(O)cc1)C(N)=O)C(C)C [CP141073, Suc-Val-Ser-Leu-Tyr-Arg-Asp-Pro-Leu-Gly-Val-Ala-Gly-Gly-Met-Gly-Val-Tyr-NH2]	2	6.31	
CSCC[C@H](NC(=O)CNC(=O)CNC(=O)[C@H](C)NC(=O)[C@@H](NC(=O)CNC(=O)[C@H](CC(C)C)NC(=O)[C@@H]1CCCN1C(=O)[C@H](CC(=O)O)NC(=O)[C@H](CCC(=O)O)NC(=O)[C@H](Cc1ccc(O)cc1)NC(=O)[C@H](CC(C)C)NC(=O)[C@H](CO)NC(=O)[C@@H](NC(=O)CCC(=O)O)C(C)C)C(C)C)C(=O)NCC(=O)N[C@H](C(=O)N[C@@H](Cc1ccc(O)cc1)C(N)=O)C(C)C [CP141074, Suc-Val-Ser-Leu-Tyr-Glu-Asp-Pro-Leu-Gly-Val-Ala-Gly-Gly-Met-Gly-Val-Tyr-NH2]	3.98	5.01	
CSCC[C@H](NC(=O)[C@H](CCC(=O)O)NC(=O)CNC(=O)[C@H](C)NC(=O)[C@@H](NC(=O)CNC(=O)[C@H](CC(C)C)NC(=O)[C@@H]1CCCN1C(=O)[C@H](CC(=O)O)NC(=O)[C@H](CCCNC(=N)N)NC(=O)[C@H](Cc1ccc(O)cc1)NC(=O)[C@H](CC(C)C)NC(=O)[C@H](CO)NC(=O)[C@@H](NC(=O)CCC(=O)O)C(C)C)C(C)C)C(=O)NCC(=O)N[C@H](C(=O)N[C@@H](Cc1ccc(O)cc1)C(N)=O)C(C)C [CP141075, Suc-Val-Ser-Leu-Tyr-Arg-Asp-Pro-Leu-Gly-Val-Ala-Gly-Glu-Met-Gly-Val-Tyr-NH2] (HELM PEPTIDE1{[O=C(O)CCC(=O)[*:2]].V.S.L.Y.R.D.P.L.G.V.A.G.E.M.G.V.Y.[am]}$$$$V2.0)	10	50.1	
CCCC[C@H](NC(=O)CNC(=O)CNC(=O)[C@H](C)NC(=O)[C@@H](NC(=O)CNC(=O)[C@H](CC(C)C)NC(=O)[C@@H]1CCCN1C(=O)[C@H](CC(=O)O)NC(=O)[C@H](CCCNC(=N)N)NC(=O)[C@H](Cc1ccc(O)cc1)NC(=O)[C@H](CC(C)C)NC(=O)[C@H](CO)NC(=O)[C@@H](NC(=O)CCC(=O)O)C(C)C)C(C)C)C(=O)NCC(=O)N[C@H](C(=O)N[C@@H](Cc1ccc(O)cc1)C(N)=O)C(C)C [CP141081, Suc-Val-Ser-Leu-Tyr-Arg-Asp-Pro-Leu-Gly-Val-Ala-Gly-Gly-Nlu-Gly-Val-Tyr-NH2]	3.16		7.94
CSCC[C@@H]1NC(=O)CNC(=O)CNC(=O)[C@H](C)NC(=O)[C@H](C(C)C)NC(=O)CNC(=O)[C@H](CC(C)C)NC(=O)[C@@H]2CCCN2C(=O)[C@H](CC(=O)O)NC(=O)[C@H](CCC(=O)O)NC(=O)[C@H](Cc2ccc(O)cc2)NC(=O)[C@H](CC(C)C)NC(=O)[C@H](CO)NC(=O)[C@H]2CCCN2C(=O)CNC(=O)[C@H](C(C)C)NC(=O)CNC1=O [CP141083, D-Pro-Ser-Leu-Tyr-Glu-Asp-Pro-Leu-Gly-Val-Ala-Gly-Gly-Met-Gly-Val-Gly]	5.01		10
CCCC[C@@H]1NC(=O)[C@H](CCC(=O)O)NC(=O)CNC(=O)[C@H](C)NC(=O)[C@H](C(C)C)NC(=O)CNC(=O)[C@H](CC(C)C)NC(=O)[C@@H]2CCCN2C(=O)[C@H](CC(=O)O)NC(=O)[C@H](CCCNC(=N)N)NC(=O)[C@H](Cc2ccc(O)cc2)NC(=O)[C@@H](NC(=O)CCC(=O)O)CSSC[C@@H](C(N)=O)NC1=O [CP141089, Suc-Cys-Tyr-Arg-Asp-Pro-Leu-Gly-Val-Ala-Gly-Glu-Nlu-Cys-NH2]	25.1		50.1
CC[C@H](NC(=O)[C@@H](NC(=O)CNC(=O)[C@H](CCCc1ccccc1)NC(=O)[C@@H]1CCCN1C(=O)[C@H](CC(=O)O)NC(=O)[C@H](CCCNC(=N)N)NC(=O)[C@H](Cc1ccc(O)cc1)NC(=O)[C@H](CC(C)C)NC(=O)[C@H](CO)NC(=O)[C@@H](NC(=O)CCC(=O)O)C(C)C)C(C)C)C(=O)NCC(=O)N[C@@H](CCC(=O)O)C(=O)N[C@@H](CCSC)C(=O)NCC(=O)N[C@H](C(=O)N[C@@H](Cc1ccc(O)cc1)C(N)=O)C(C)C [CP141090, Suc-Val-Ser-Leu-Tyr-Arg-Asp-Pro-Ph5-Gly-Val-Abu-Gly-Glu-Met-Gly-Val-Tyr-NH2] (HELM PEPTIDE1{[O=C(O)CCC(=O)[*:2]].V.S.L.Y.R.D.P.[O=C([C@H](CCCc1ccccc1)N[*:1])[*:2]].G.V.[Abu].G.E.M.G.V.Y.[am]}$$$$V2.0)	10		15.8
CC[C@@H]1NC(=O)[C@H](C(C)C)NC(=O)CNC(=O)[C@H](CCCc2ccccc2)NC(=O)[C@@H]2CCCN2C(=O)[C@H](CC(=O)O)NC(=O)[C@H](CCC(=O)O)NC(=O)[C@H](Cc2ccc(O)cc2)NC(=O)[C@H](CC(C)C)NC(=O)CNC(=O)[C@H]2CCCN2C(=O)CNC(=O)[C@H](CCSC)NC(=O)CNC(=O)CNC1=O [CP141092, Gly-Leu-Tyr-Glu-Asp-Pro-Ph5-Gly-Val-Abu-Gly-Gly-Met-Gly-D-Pro] (HELM PEPTIDE1{[Abu].G.G.M.G.[dP].G.L.Y.E.D.P.[O=C([C@H](CCCc1ccccc1)N[*:1])[*:2]].G.V}$PEPTIDE1,PEPTIDE1,1:R1-15:R2$$$V2.0)	0.398		0.251
CC[C@@H]1NC(=O)[C@H](C(C)C)NC(=O)CNC(=O)[C@H](CCCc2ccccc2)NC(=O)[C@@H]2CCCN2C(=O)[C@H](CC(=O)O)NC(=O)[C@H](CCCNC(=N)N)NC(=O)[C@H](Cc2ccc(O)cc2)NC(=O)[C@@H](NC(=O)CCC(=O)O)CSSC[C@@H](C(N)=O)NC(=O)[C@H](CCSC)NC(=O)[C@H](CCC(=O)O)NC(=O)CNC1=O [CP141093, Suc-Cys-Tyr-Arg-Asp-Pro-Ph5-Gly-Val-Abu-Gly-Glu-Met-Cys-NH2] (HELM PEPTIDE1{[O=C(O)CCC(=O)[*:2]].C.Y.R.D.P.[O=C([C@H](CCCc1ccccc1)N[*:1])[*:2]].G.V.[Abu].G.E.M.C.[am]}$PEPTIDE1,PEPTIDE1,2:R3-14:R3$$$V2.0)	10		20
